Converted amounts (≈) assume the structure as drawn.
What follows are molecules tested on Acinetobacter baumannii (assay: Antimicrobial activity against ISAba1 linked with the blaOXA-51-type beta-lactamase harboring Acinetobacter baumannii alpha clonal group isolate 1 expressing ampC, ompA, adeB, adeM by Etest method).
Assay type: functional

| Structure (SMILES) | MIC [µg/mL] |
| --- | --- |
| C[C@@H](O)[C@H]1C(=O)N2C(C(=O)O)=C(SCCNC=N)C[C@H]12 [IMIPENEM ANHYDROUS] | 2 (≈ 6.68 µM) |

These molecules were tested on Acinetobacter baumannii (assay: Antimicrobial activity against Acinetobacter baumannii alpha clonal group isolate 2 expressing ampC, ompA, adeB, adeM, aacC1, aadA1 by Etest method).
Assay type: functional

| Structure (SMILES) | MIC [µg/mL] |
| --- | --- |
| C[C@@H](O)[C@H]1C(=O)N2C(C(=O)O)=C(SCCNC=N)C[C@H]12 [IMIPENEM ANHYDROUS] | 0.38 (≈ 1.27 µM) |

The molecules below were run on Acinetobacter baumannii (assay: Antimicrobial activity against Acinetobacter baumannii alpha clonal group isolate 3 expressing ampC, ompA, adeB, adeM, aacC1, aadA1 by Etest method).
Assay type: functional

| Structure (SMILES) | MIC [µg/mL] |
| --- | --- |
| C[C@@H](O)[C@H]1C(=O)N2C(C(=O)O)=C(SCCNC=N)C[C@H]12 [IMIPENEM ANHYDROUS] | 0.38 (≈ 1.27 µM) |

Each molecule was assayed on Acinetobacter baumannii (assay: Antimicrobial activity against Acinetobacter baumannii alpha clonal group isolate 4 expressing ampC, ompA, adeB, adeM, aacC1, aadA1 by Etest method).
Assay type: functional

| Structure (SMILES) | MIC [µg/mL] |
| --- | --- |
| C[C@@H](O)[C@H]1C(=O)N2C(C(=O)O)=C(SCCNC=N)C[C@H]12 [IMIPENEM ANHYDROUS] | 0.38 (≈ 1.27 µM) |

Each molecule was assayed on Acinetobacter baumannii (assay: Antimicrobial activity against Acinetobacter baumannii alpha clonal group isolate 5 expressing ampC, ompA, adeB, adeM, aacC1, aadA1 by Etest method).
Assay type: functional

| Structure (SMILES) | MIC [µg/mL] |
| --- | --- |
| C[C@@H](O)[C@H]1C(=O)N2C(C(=O)O)=C(SCCNC=N)C[C@H]12 [IMIPENEM ANHYDROUS] | 0.38 (≈ 1.27 µM) |

These molecules were tested on Acinetobacter baumannii (assay: Antimicrobial activity against ISAba1 linked with the blaOXA-51-type beta-lactamase harboring Acinetobacter baumannii alpha clonal group isolate 6 expressing ampC, ompA, adeB, adeM, aacC1, aadA1 by Etest method).
Assay type: functional

| Structure (SMILES) | MIC [µg/mL] |
| --- | --- |
| C[C@@H](O)[C@H]1C(=O)N2C(C(=O)O)=C(SCCNC=N)C[C@H]12 [IMIPENEM ANHYDROUS] | 3 (≈ 10 µM) |

The molecules below were run on Acinetobacter baumannii (assay: Antimicrobial activity against ISAba1 linked with the blaOXA-51-type beta-lactamase harboring Acinetobacter baumannii alpha clonal group isolate 7 expressing ampC, ompA, adeB, adeM, blaSHV-5 by Etest method).
Assay type: functional

| Structure (SMILES) | MIC [µg/mL] |
| --- | --- |
| C[C@@H](O)[C@H]1C(=O)N2C(C(=O)O)=C(SCCNC=N)C[C@H]12 [IMIPENEM ANHYDROUS] | 4 (≈ 13.4 µM) |

The molecules below were run on Acinetobacter baumannii (assay: Antimicrobial activity against ISAba1 linked with the blaOXA-51-type beta-lactamase harboring Acinetobacter baumannii alpha clonal group isolate 8 expressing ampC, ompA, adeB, adeM, aacC1, aadA1 by Etest method).
Assay type: functional

| Structure (SMILES) | MIC [µg/mL] |
| --- | --- |
| C[C@@H](O)[C@H]1C(=O)N2C(C(=O)O)=C(SCCNC=N)C[C@H]12 [IMIPENEM ANHYDROUS] | 6 (≈ 20 µM) |

These molecules were tested on Acinetobacter baumannii (assay: Antimicrobial activity against ISAba1 linked with the blaOXA-51-type beta-lactamase harboring Acinetobacter baumannii beta clonal group isolate 9 expressing ampC, ompA, adeB, adeM by Etest method).
Assay type: functional

| Structure (SMILES) | MIC [µg/mL] |
| --- | --- |
| C[C@@H](O)[C@H]1C(=O)N2C(C(=O)O)=C(SCCNC=N)C[C@H]12 [IMIPENEM ANHYDROUS] | 12 (≈ 40.1 µM) |

The molecules below were run on Acinetobacter baumannii (assay: Antimicrobial activity against ISAba1 linked with the blaOXA-51-type beta-lactamase harboring Acinetobacter baumannii beta clonal group isolate 10 expressing ompA, adeB, adeM, aacA4, blaSHV-5 by Etest method).
Assay type: functional

| Structure (SMILES) | MIC [µg/mL] |
| --- | --- |
| C[C@@H](O)[C@H]1C(=O)N2C(C(=O)O)=C(SCCNC=N)C[C@H]12 [IMIPENEM ANHYDROUS] | 16 (≈ 53.4 µM) |

Each molecule was assayed on Acinetobacter baumannii (assay: Antimicrobial activity against ISAba1 linked with the blaOXA-51-type beta-lactamase harboring Acinetobacter baumannii beta clonal group isolate 11 expressing ompA, adeB, adeM, blaSHV-5 by Etest method).
Assay type: functional

| Structure (SMILES) | MIC [µg/mL] |
| --- | --- |
| C[C@@H](O)[C@H]1C(=O)N2C(C(=O)O)=C(SCCNC=N)C[C@H]12 [IMIPENEM ANHYDROUS] | > 32 |

The molecules below were run on Acinetobacter baumannii (assay: Antimicrobial activity against ISAba1 linked with the blaOXA-51-type beta-lactamase harboring Acinetobacter baumannii beta clonal group isolate 12 expressing ompA, adeB, adeM, aacA4, aacC2, blaSHV-5 by Etest method).
Assay type: functional

| Structure (SMILES) | MIC [µg/mL] |
| --- | --- |
| C[C@@H](O)[C@H]1C(=O)N2C(C(=O)O)=C(SCCNC=N)C[C@H]12 [IMIPENEM ANHYDROUS] | 32 (≈ 107 µM) |

These molecules were tested on Acinetobacter baumannii (assay: Antimicrobial activity against ISAba1 linked with the blaOXA-51-type beta-lactamase harboring Acinetobacter baumannii beta clonal group isolate 13 expressing ompA, adeB, adeM, aacA4, blaSHV-5 by Etest method).
Assay type: functional

| Structure (SMILES) | MIC [µg/mL] |
| --- | --- |
| C[C@@H](O)[C@H]1C(=O)N2C(C(=O)O)=C(SCCNC=N)C[C@H]12 [IMIPENEM ANHYDROUS] | > 16 |

What follows are molecules tested on Acinetobacter baumannii (assay: Antimicrobial activity against ISAba1 linked with the blaOXA-51-type beta-lactamase harboring Acinetobacter baumannii beta clonal group isolate 14 expressing ompA, adeB, adeM, aacA4, blaSHV-5 by Etest method).
Assay type: functional

| Structure (SMILES) | MIC [µg/mL] |
| --- | --- |
| C[C@@H](O)[C@H]1C(=O)N2C(C(=O)O)=C(SCCNC=N)C[C@H]12 [IMIPENEM ANHYDROUS] | > 16 |

The molecules below were run on Acinetobacter baumannii (assay: Antimicrobial activity against ISAba1 linked with the blaOXA-51-type beta-lactamase harboring Acinetobacter baumannii beta clonal group isolate 15 expressing ompA, adeB, adeM, aacA4, blaSHV-5 by Etest method).
Assay type: functional

| Structure (SMILES) | MIC [µg/mL] |
| --- | --- |
| C[C@@H](O)[C@H]1C(=O)N2C(C(=O)O)=C(SCCNC=N)C[C@H]12 [IMIPENEM ANHYDROUS] | > 16 |

These molecules were tested on Acinetobacter baumannii (assay: Antimicrobial activity against ISAba1 linked with the blaOXA-51-type beta-lactamase harboring Acinetobacter baumannii beta clonal group isolate 16 expressing ompA, adeB, adeM, aacA4, blaSHV-5 by Etest method).
Assay type: functional

| Structure (SMILES) | MIC [µg/mL] |
| --- | --- |
| C[C@@H](O)[C@H]1C(=O)N2C(C(=O)O)=C(SCCNC=N)C[C@H]12 [IMIPENEM ANHYDROUS] | > 16 |

These molecules were tested on Acinetobacter baumannii (assay: Antimicrobial activity against ISAba1 linked with the blaOXA-51-type beta-lactamase harboring Acinetobacter baumannii beta clonal group isolate 17 expressing ompA, adeB, adeM, aacA4, blaSHV-5 by Etest method).
Assay type: functional

| Structure (SMILES) | MIC [µg/mL] |
| --- | --- |
| C[C@@H](O)[C@H]1C(=O)N2C(C(=O)O)=C(SCCNC=N)C[C@H]12 [IMIPENEM ANHYDROUS] | > 16 |

What follows are molecules tested on Acinetobacter baumannii (assay: Antimicrobial activity against ISAba1 linked with the blaOXA-51-type beta-lactamase harboring Acinetobacter baumannii beta clonal group isolate 18 expressing ompA, adeB, adeM, aacA4, blaSHV-5 by Etest method).
Assay type: functional

| Structure (SMILES) | MIC [µg/mL] |
| --- | --- |
| C[C@@H](O)[C@H]1C(=O)N2C(C(=O)O)=C(SCCNC=N)C[C@H]12 [IMIPENEM ANHYDROUS] | 12 (≈ 40.1 µM) |

What follows are molecules tested on Acinetobacter baumannii (assay: Antimicrobial activity against ISAba1 linked with the blaOXA-51-type beta-lactamase harboring Acinetobacter baumannii zeta clonal group isolate 19 expressing ampC, ompA, adeB, adeM, aacC2 by Etest method).
Assay type: functional

| Structure (SMILES) | MIC [µg/mL] |
| --- | --- |
| C[C@@H](O)[C@H]1C(=O)N2C(C(=O)O)=C(SCCNC=N)C[C@H]12 [IMIPENEM ANHYDROUS] | 1 (≈ 3.34 µM) |

The molecules below were run on Acinetobacter baumannii (assay: Antimicrobial activity against ISAba1 linked with the blaOXA-51-type beta-lactamase harboring Acinetobacter baumannii zeta clonal group isolate 20 expressing ampC, ompA, adeB, adeM, aacC2 by Etest method).
Assay type: functional

| Structure (SMILES) | MIC [µg/mL] |
| --- | --- |
| C[C@@H](O)[C@H]1C(=O)N2C(C(=O)O)=C(SCCNC=N)C[C@H]12 [IMIPENEM ANHYDROUS] | 1 (≈ 3.34 µM) |
